Test results from US12692221B2 (priority 2024, dated 2026).
pEC50, pIC50, pKi: −log10 of the molar value.

Columns and labels:
5-HT2C (h) = molecular target: T1, 5-HT2C (h) (Homo sapiens, UniProt P28335); assay: Radioligand binding 5-HT2C (h) (agonist radioligand), [^125I](±)DOI, HEK-293 cells
T1 construct: host or cells: HEK-293 cells
T1 sequence (P28335 33-458): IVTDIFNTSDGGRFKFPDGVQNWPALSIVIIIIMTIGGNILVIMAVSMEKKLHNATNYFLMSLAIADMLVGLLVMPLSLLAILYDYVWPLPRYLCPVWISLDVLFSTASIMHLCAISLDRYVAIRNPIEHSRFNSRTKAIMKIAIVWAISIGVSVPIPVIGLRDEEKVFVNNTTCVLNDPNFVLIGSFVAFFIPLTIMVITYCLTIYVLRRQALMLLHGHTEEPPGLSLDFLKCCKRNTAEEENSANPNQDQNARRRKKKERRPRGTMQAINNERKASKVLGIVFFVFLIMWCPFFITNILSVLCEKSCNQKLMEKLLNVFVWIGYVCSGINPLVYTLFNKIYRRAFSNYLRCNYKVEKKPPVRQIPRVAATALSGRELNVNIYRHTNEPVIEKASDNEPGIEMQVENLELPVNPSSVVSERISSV

5-HT2A (h) = molecular target: T2, 5-HT2A (h) (Homo sapiens, UniProt P28223); assay: Radioligand binding 5-HT2A (h) (agonist radioligand), [^125I](±)DOI, HEK-293 cells
T2 construct: host or cells: HEK-293 cells
T2 sequence (P28223 whole entry, looked up): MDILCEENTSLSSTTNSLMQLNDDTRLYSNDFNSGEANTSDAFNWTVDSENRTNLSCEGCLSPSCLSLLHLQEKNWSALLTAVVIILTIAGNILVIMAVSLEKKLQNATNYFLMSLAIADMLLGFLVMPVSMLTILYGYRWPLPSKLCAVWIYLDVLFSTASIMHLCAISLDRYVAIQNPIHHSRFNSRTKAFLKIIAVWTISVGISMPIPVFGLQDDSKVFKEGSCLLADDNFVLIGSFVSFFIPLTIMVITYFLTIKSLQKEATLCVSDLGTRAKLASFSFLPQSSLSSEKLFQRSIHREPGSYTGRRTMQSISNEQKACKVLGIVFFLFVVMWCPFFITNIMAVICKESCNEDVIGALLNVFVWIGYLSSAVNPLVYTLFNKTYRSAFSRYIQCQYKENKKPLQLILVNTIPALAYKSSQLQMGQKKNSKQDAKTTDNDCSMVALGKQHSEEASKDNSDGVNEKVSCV

5-HT2C = molecular target: T3, 5-HT2C (Homo sapiens, UniProt P28335); assay: cell-based; details: IP-1 accumulation
T3 construct: host or cells: HEK293

[1] = test system: Balb/c mice sensitized to OVA; assay: Airway hyperresponsiveness in OVA-induced murine allergic asthma, whole-body plethysmography with methacholine challenge; type: in vivo, mouse; details: 0.5 mg/kg intraperitoneal + OVA, measured 48 hours after final OVA exposure
Description: Methods: Experiments were conducted in accordance with the methods of Flanagan et al., ACS Pharmacol Transl Sci. 2020 Aug. 13; 4(2):488-502 with modifications. Briefly, Balb/c mice were sensitized to OVA via IP injection. Mice were then exposed repeatedly to aerosolized OVA to induce acute allergic airway inflammation. Airway responsiveness was assessed using non-invasive whole-body plethysmography (WBP) and methacholine challenge. Lung tissue was analyzed to quantify inflammation and mucus production.
Mice were separated into three experimental groups: 1) Naive mice were not exposed to OVA sensitization and challenge, 2) OVA mice were sensitized and challenged with the allergen OVA to induce allergic airway inflammation and hyperresponsiveness, and 3) 0.5 mg/kg exemplary compound+OVA. The exemplary compound was administered to mice via intraperitoneal injection. Respiratory parameters were measured 48 hours after the final OVA exposure. Airway responsiveness to methacholine was measured using noninvasive whole-body plethysmography (WBP) in unrestrained mice.
Baseline PenH values were recorded for each experimental group, followed by exposure to aerosolized saline or increasing concentrations of methacholine, to assess the sensitivity and reactivity of airways due to its bronchoconstricting activity. PenH values were recorded, and data were analyzed using software. […]

| Compound | Mean Percent Inhibition of Control Specific Binding (5-HT2C (h); 5-HT2C(h) (agonist radioligand)) | Mean Percent Inhibition of Control Specific Binding (5-HT2A (h); 5-HT2A(h) (agonist radioligand)) | pEC50 (5-HT2C) | pIC50 (5-HT2C (h)) | pKi (5-HT2C (h)) | nH (5-HT2C (h); 5-HT2C, Hill coefficient) | PenH response to methacholine (airway hyperresponsiveness) [1] | pIC50 (5-HT2A (h)) | pKi (5-HT2A (h)) | nH (5-HT2A (h); 5-HT2A, Hill coefficient) |
| --- | --- | --- | --- | --- | --- | --- | --- | --- | --- | --- |
| COCCc1cc(CCN)c(OC)cc1Br [Compound 2CB-5ME, reference compound] | 99.3% | 98.8% | 6.58 | – | – | – | – | – | – | – |
| COCc1cc(CCN)c(OC)cc1Br [Compound 2CB-5MM, 2-(4-bromo-2-methoxy-5-(methoxymethyl)phenyl)ethan-1-amine] | – | – | 6.65 | – | – | – | – | – | – | – |
| COCc1cc(CCN)c(OC)cc1CC(C)C [Compound 2CiBu-5MM, 2-[4-isobutyl-2-methoxy-5-(methoxymethyl)phenyl]ethanamine] | – | – | – | 7.85 | 7.92 | 0.9 | reduced PenH values to levels representative of normal airway function | 7.24 | 7.37 | 0.6 |
